Laboratory results: US8680097B2, “Benzothiophene alkanol piperazine derivatives and their use as antidepressant” (CSPC Zhongqi Pharmaceutical Technology (Shijiazhuang) Co. …, priority 2008, dated 2014)
Like-named read-outs stand apart in the source and are kept apart here.

What was measured:
[1] = test system: uptake of DA by brain synaptosomes; assay: [3H]DA reuptake by rat brain synaptosomes; assay type: biochemical; details: for inhibition effect on the uptake of DA: rat corpus striatum synaptosomes, control drugs and tested substances all 0.1 mmol/L (method and b297 say 10 μmol/L), inhibition rate; for inhibition activity on the reuptake of DA (in words): at the concentration of 10 μmol/L
[2] = test system: uptake of 5-HT by brain synaptosomes; assay: [3H]5-HT reuptake by rat brain synaptosomes; assay type: biochemical; details: at the concentration of 10 μmol/L
[3] = test system: uptake of NA by brain synaptosomes; assay: [3H]NA reuptake by rat brain synaptosomes; assay type: biochemical; details: at the concentration of 10 μmol/L
[4] = test system: histidine auxotrophic mutant strains of Salmonella TA97, TA98, TA100 and TA102; assay type: cell-based
Description: 4. Bacterial reverse mutation test for VII-10.
Bacterium: histidine auxotrophic mutant strains of Salmonella TA97, TA98, TA100 and TA102
Experimental method: the method reported in the literature: Maron D M et al: (1983) Mutay Res. 113, 173-216.
Results: The experiment included two parts: −S9 and +S9. […] The other dosages had no bacteriostatic effect for all the strains, with a well growing background. […] Ames test result was negative.

[5] = Forced Swimming Test in Learned Helplessness Experiment; assay type: in vivo
Description: 2. Results of in vivo antidepression of compound VII-10

mice = assay: Acute toxicity, LD50 single-fed; assay type: in vivo; details: statistics of Bliss
Procedure: Initial screening was performed by the method reported in “Modern Pharmacological Experiments Mothods” edited by Zhang Juntian.

CC(C(O)c1csc2ccccc12)N1CCN(Cc2ccccc2)CC1 (single isomer, unassigned) [VII-4, N^1-benzyl-N^4-[1-methyl-2-hydroxy-2-(benzo[b]thiophene-3-yl)]ethylpiperazine (threo isomer)]
inhibition effect on the uptake of DA [1]: 14.5 ± 10.0

CC(C(O)c1csc2ccccc12)N1CCN(Cc2ccccc2)CC1 (single isomer, unassigned) [VII-5, N^1-benzyl-N^4-[1-methyl-2-hydroxy-2-(benzo[b]thiophene-3-yl)]ethylpiperazine (erythro isomer)]
inhibition effect on the uptake of DA [1]: 11.4 ± 11.5

Clc1ccc([C@]23CNC[C@H]2C3)cc1Cl [DOV 21947, reference compound]
inhibition effect on the uptake of DA [1]: 104.1 ± 4.2 ^

Cl.OC(CCN1CCN(Cc2ccccc2)CC1)c1csc2ccccc12 (stereo not drawn) [VII-10, N^1-benzyl-N^4-[3-hydroxy-3-(benzo[b]thiophene-3-yl)]propylpiperazine hydrochloride]
inhibition activity on the reuptake of 5-HT (in words) [2]: stronger inhibition activity | inhibition activity on the reuptake of NA (in words) [3]: stronger inhibition activity | Ames test result ([4]; TA97, TA98, TA100, TA102, −S9 and +S9): negative | dose showing bacteriostatic effect ([4]; TA97 in +S9 test system): 5000 μg per culture dish | dose showing bacteriostatic effect ([4]; TA98 in −S9 test system): 5000 μg per culture dish | number of reverse mutation colonies ([4]; all dosages tested, both −S9 and +S9 test systems): no significant increase | effect on immobility time in swimming (in words) [5]: significantly reduce the immobility time | immobility time ([5]; dosage 6.35 mg/kg): 90.7 ± 46.3 s | immobility time ([5]; dosage 12.7 mg/kg): 87.5 ± 35.7 s | immobility time ([5]; dosage 25.4 mg/kg, hydrochloride): 84 ± 48.9 s | inhibition activity on the reuptake of DA (in words) [1]: stronger inhibition activity | inhibition effect on the uptake of DA [1]: 78.0 ± 8.0 | LD50 (mice): 1100 mg/kg

Cl.OC(CCN1CCN(CC=Cc2ccccc2)CC1)c1csc2ccccc12 (stereo not drawn) [VII-11, N^1-cinnamyl-N^4-[3-hydroxy-3-(benzo[b]thiophene-3-yl)]propylpiperazine hydrochloride]
inhibition activity on the reuptake of 5-HT (in words) [2]: stronger inhibition activity | inhibition activity on the reuptake of NA (in words) [3]: stronger inhibition activity | inhibition activity on the reuptake of DA (in words) [1]: stronger inhibition activity | inhibition effect on the uptake of DA [1]: 97.9 ± 1.1

CC(c1ccccc1)N1CCN(CCC(O)c2csc3ccccc23)CC1.Cl (stereo not drawn) [VII-12, N^1-α-phenethyl-N^4-[3-hydroxy-3-(benzo[b]thiophene-3-yl)]propylpiperazine hydrochloride]
inhibition activity on the reuptake of 5-HT (in words) [2]: stronger inhibition activity | inhibition activity on the reuptake of NA (in words) [3]: stronger inhibition activity | inhibition activity on the reuptake of DA (in words) [1]: stronger inhibition activity | inhibition effect on the uptake of DA [1]: 98.0 ± 1.5

Cl.OC(CCN1CCN(C(c2ccccc2)c2ccccc2)CC1)c1csc2ccccc12 (stereo not drawn) [VII-14, N^1-benzhydryl-N^4-[3-hydroxy-3-(benzo[b]thiophene-3-yl)]propylpiperazine hydrochloride]
inhibition activity on the reuptake of 5-HT (in words) [2]: stronger inhibition activity | inhibition activity on the reuptake of NA (in words) [3]: stronger inhibition activity | inhibition activity on the reuptake of DA (in words) [1]: stronger inhibition activity | inhibition effect on the uptake of DA [1]: 87.3 ± 4.3

Cl.OC(CCN1CCN(CCOC(c2ccc(F)cc2)c2ccc(F)cc2)CC1)c1csc2ccccc12 (stereo not drawn) [VII-15]
inhibition activity on the reuptake of 5-HT (in words) [2]: stronger inhibition activity | inhibition activity on the reuptake of NA (in words) [3]: stronger inhibition activity | inhibition activity on the reuptake of DA (in words) [1]: stronger inhibition activity | inhibition effect on the uptake of DA [1]: 102.2 ± 1.3 ^

COc1ccc(C(CN(C)C)C2(O)CCCCC2)cc1 (stereo not drawn) [Venlafaxine, reference compound]
immobility time ([5]; dosage 4.56 mg/kg): 57.1 ± 37.8 s | immobility time ([5]; dosage 9.12 mg/kg): 77.4 ± 47.2 s | immobility time ([5]; dosage 18.24 mg/kg): 80.8 ± 46.8 s | inhibition effect on the uptake of DA [1]: 48.6 ± 4.1 ^
